Experimental data published in US4150970A, “Growth regulator for plants” (Board of Trustees of Michigan State University, priority 1977, dated 1979).

Legend:
plants = assay: Plant growth regulation (general statement); type: in vivo; details: analogous compounds
tobacco callus = assay: Growth of tobacco callus, triacontanol and octocosanol (Example XIX, FIG. 6); type: cell-based, Nicotiana tabacum, var. Wisconsin 38; details: four concentrations, 10 days
Description: Cell cultures were separately grown in disposable petri dishes.
1. Haploid tobacco (Nicotiana tabacum, var. Wisconsin 38)
The cultures were grown on the basic medium of mineral salts described by Linsmaier and Skoog (Physiol. Plant, […] (1965)). Vitamins and hormones varied for each tissue (Table X-1) to maintain the tissues in an undifferentiated state. For all of the tissues inositol was 100 mg/liter and agar 1%. Sucrose was 3% for all but the bean which was 2%.
Callus was produced from pith for tobacco, potato and tomato. Bean callus was produced from hypocotyl sections and barley callus from immature ovarian tissue. Subcultures were maintained on the appropriate media.
Stock solutions of triacontanol were prepared at a concentration of 100 μg/ml. The solvent used was glass distilled benzene. The lower concentrations were obtained by serial dilutions. Treatments were applied to 4.5 cm Whatman #1 filter paper disks in 100 μl aliquots. Controls received 100 μl of glass distilled benzene. The solvent was evaporated for approximately 15 minutes and the filter papers were then placed on the agar medium.
Callus tissue was then broken into pieces of approximately the same size (10 mg) and placed in the petri dishes on the treated filter paper (one piece per dish). For experiments conducted in the light the intensity was approximately 2.0 microwatts/cm^2 -namometer. Fresh weight measurements were made after 12 days of growth.
A stock solution of octocosanol (CH3 (CH2)26 CH2 OH was prepared in the same manner as the triacontanol solutions above described.
The effect of four concentrations of triacontanol and octocosanol on tobacco callus was determined, using the materials and procedures above described in this Example. The dishes were tared and weighed at the end of 10 days. The results are illustrated in FIG. 6 of the drawings.

oat first-internode = details: published reports; cited from earlier work

Row | SMILES | effect as plant growth regulator (plants) | growth over the control (tobacco callus) | growth, oat first-internode method (oat first-internode)
1 | CCCCCCCCCCCCCCCCCCCCCCCCCCCCCC [triacontane] | ineffective | – | –
2 | CCCCCCCCCCCCCCCCCCCCCCCCCCCC(=O)O [octocosanoic acid] | ineffective | – | –
3 | CCCCCCCCCCCCCCCCCCCCCCCCCCCCO [octocosanol, reference compound] | ineffective | no effect on growth | –
4 | CCCCCCCCCCCCCCCCCCCCCCO [1-docosanol, reference compound] | – | – | increase growth
